According to patent US20090179638A1, “ASSAY FOR IDENTIFYING INHIBITORS OF NEURONAL APOPTOTIC PATHWAYS” (AEGERA THERAPEUTICS INC., priority 2006, published 2009):
“Also recorded” adds a separate entry of the source.

Experiments:
HSP90 [1] = experiment: ATP-Sepharose interaction assay; format: binding; settings: purified HSP90 pre-incubated with substance
Protocol: Bound HSP90 was eluted HSP90 content was determined by immunoblotting.
ATP-Sepharose Interaction Assays. These were performed essentially as described in (Grenert et al., 1997). […] 25 ul of ATP-sepharose beads were added and the reactions were incubated for 30 min at 30° C. After thorough washing with ice-cold incubation buffer, bound proteins were eluted in sample buffer and HSP90 content was determined by immunoblotting.

PC12^rtTA cells = experiment: p75NTR- or NRAGE-induced cell death of PC12rtTA cells (LDH release assay); format: cell-based; settings: increasing concentrations, 40 hours, LDH
Protocol: FIGS. 2A and 2B are graphs showing that compound 1 inhibits p75NTR or NRAGE induced JNK activation and cell death. Compound 1 inhibits NRAGE (A) or p75NTR (B) mediated cell death. PC12^rtTA cells were infected with recombinant adenoviruses expressing full-length NRAGE (AdNRG) at 5 MOI, full length p75NTR (Adp75) at 50 or 100 MOI, or the control protein β-galactosidase (AdLacZ) (at 5 MOI in (A) and 50 MOI in (B)). At time of infection, the cells were treated with an increasing concentration of compound 1, or with vehicle alone, as indicated. After 40 hours, cells were assayed for death using the lactate dehydrogenase (LDH) assay; untreated cells (Un) and cells treated with 1% Triton X-100 (Tx) were used to delineate the output range of the assay. Results are normalized relative to those obtained with 1% Triton (Tx), and represent the mean±standard deviation of a representative experiment performed in triplicate (*=P<0.005 relative to no compound 1).
PC12^rtTA were infected with adenoviruses encoding p75NTR (Adp75), NRAGE (AdNRG), or as a control, LacZ (AdLacZ), and were concurrently exposed to increasing concentrations of compound 1 for a period of 40 hours. Cell death was assessed using an LDH release assay. […] Treatment with 40 μM compound 1 reduced p75NTR- or NRAGE-induced cell death by greater than 90%.
(§1) Cell culture, infection, transfection and immunoblotting. Sympathetic neurons were maintained and deprived of NGF as previously described (Bamji et al., 1998; Ma et al., 1992). PC12^rtTA cells were maintained and infected as previously described (Majdan et al., 1997; Salehi et al., 2002); for NRAGE, […] doxycycline was added to all plates at time of infection. Wildtype and HSF1 nullizygous immortalized mouse embryonic fibroblasts (MEFs) were maintained in DMEM containing 10% fetal calf serum, 1 μM β-mercaptoethanol, 1% non-essential amino acids, 1% L-glutamine, 1% antimycotic solution and 1% sodium pyruvate (all from GibcoBRL). Sympathetic neuron survival was assessed using the MTS assay according to the manufacturer's instructions (Promega). Analysis of PC12 cell death was determined using a lactate dehydrogenase (LDH) assay (Roche) as per the manufacturer's instructions. Transfections using plasmids or RNAi were performed using Lipofectamine 2000. Immunoblotting was performed as previously described (Majdan et al., 1997; Salehi et al., 2002).

SCG neurons = experiment: NGF-withdrawal induced cell death of SCG neurons (MTS assay); format: cell-based, rat; settings: SCG neurons withdrawn from NGF, 48 hours
Protocol: FIG. 1 is a graph showing that compound 1 inhibits NGF-withdrawal induced cell death. Cultures of rat SCG neurons (see Materials and Methods) initially maintained in 10 ng/ml of NGF were withdrawn from NGF and maintained in media containing compound 1 at the concentrations indicated for 48 hours. Cellular viability was assayed using an MTS assay. (*=P<0.01 relative to no compound 1). Experiments were performed three times with identical results.
Survival of neonatal primary sympathetic neurons is dependent on trophic support provided by Neuronal Growth Factor (NGF) (reviewed in (Young et al., 2004)).
as §1

HSP70 = experiment: HSP protein expression in PC12 / PC12rtTA cells (immunoblot); format: cell-based; settings: PC12rtTA cells infected with AdNRG, Adp75 or AdLacZ, 30 hours (FIG. 6A)
Protocol: FIGS. 4A-4C are photographs of Western blots which illustrate that compound 1 treatment of PC12 cells induces expression of HSP70. A: PC12 cells were infected with 5 MOI of AdNRG (NRG) or AdLacZ (LacZ) as indicated. Cells were left untreated (0) or treated with 40 μM compound 1 at time of infection (30), one hour before lysis (1), or at both times (30+1). Cells were lysed thirty hours after infection, normalized for protein content, and analyzed for levels of phospho-Ser^63 c-Jun and total c-Jun, total JNK, IkBα, and NRAGE by immunoblotting. Lysates from untreated cells are indicated by ‘−’. B: PC12 cells were treated with the indicated concentrations of compound 1 for 18 hours and then lysed, normalized for protein content, and analyzed for levels of HSP70 by immunoblotting. Lysates from untreated cells are indicated by ‘−’. C: RNA isolated from PC12^rtTA cells treated with increasing concentrations of compound 1 for 18 hours was analyzed by rtPCR using primers specific to HSP70, HSP25, HSP90 or actin, as indicated. Experiments in Panel A and B were performed three times and that in Panel C was performed twice, with essentially identical results. D: PC12^rtTA cells were infected with AdNRG at 5 MOI, Adp75 at 50 MOI, or the control virus AdLacZ at 50 MOI. At time of infection, the cells were treated with increasing concentrations of compound 1, or with vehicle alone, as indicated. Thirty hours after infection, cells were lysed, normalized for protein content, and analyzed for levels of c-Jun phosphorylation, HSP70, HSP25, HSP40, NRAGE, p75NTR, JNK-1 and IkBα, as indicated.
FIGS. 6A, 6B and 6C are graphs and photographs of Western blots which illustrate that compound 1 analogues inhibit JNK activation and induce expression of HSP70. A: PC12^rtTA cells were infected with 5 MOI of AdNRG, 50 MOI of Adp75 or 50 MOI of the control virus AdLacZ. At time of infection, the cells were treated with an increasing concentrations of compound 1, or its analogues, compound 2, compound 3, compound 4, or with vehicle alone, as indicated. Thirty hours after infection, cells were lysed, normalized for protein levels, and analyzed for levels of HSP70, HSP25 and JNK-1, as indicated. B: PC12^rtTA cells were treated as above and after 40 hours infection were assayed for death using the lactate dehydrogenase (LDH) assay. Results are normalized relative to those obtained with 1% Triton, and represent the mean±standard deviation of a representative experiment performed in triplicate (*=P<0.025 relative to ‘0’ for each compound concentration). C: PC12^rtTA cells were infected with 50 MOI of LacZ or 5 MOI of AdNRG50 and at the time of infection, were treated with 40 μM compound 1, or its analogues, compound 2, compound 3, compound 4, or with vehicle alone, as indicated. Thirty hours after infection, cells were lysed, normalized for protein levels, and were analyzed for phosphorylated c-Jun, total c-Jun, NRAGE and JNK-1, as indicated. Experiments in Panel A and C were performed twice and that in B were performed twice, with essentially identical results.
To address this, SCG neurons were treated with compound 1 for 18 hours then lysed and assessed for HSP70 levels by immunoblot. Uninfected PC12rtTA cells were treated in a similar manner. […] To test if the accumulation of HSP70 induced by compound 1 reflected increased steady state levels of its mRNA, RNA was isolated from PC12 cells treated with increasing concentrations of compound 1 for 18 hours and the cell lysates subjected to semi-quantitative rtPCR. […] HSP protein levels were also assessed in PC12rtTA cells infected with AdLacZ, Adp75, or AdNRG, and at the same time, exposed to compound 1.

HSP90 protein = experiment: STD 1H NMR spectroscopy binding to HSP90; settings: compound to protein ratio approximately 100:1, 20 mM sodium phosphate buffer pH 6.7
Protocol: (§2) FIG. 9 is a STD 1H NMR Spectrum of Compound 1 and 20 with HSP90 protein. STD NMR experiments were performed at 19° C. on a Varian INNOVA 500 MHz spectrometer equipped with a triple resonance HCN cold probe. A 1D saturation transfer difference pulse sequence with internal subtraction via phase cycling was employed. Residual HDO signal was removed using a W5 WATERGATE pulse sequence, with a […] interpulse delay. On resonance irradiation of the protein was performed at −0.5 ppm, with off-resonance irradiation at 34 ppm. The irradiation power was (g/2p)B1=93 Hz applied through a train of 50 ms eburp1 pulses with a 1 ms delay between the pulses. The total presaturation time was 5.1 s. The relaxation delay was set to 0.1 s. A 30 ms spin-lock pulse with a strength of (g/2p)B1=4600 Hz was used to eliminate background protein signals. The total number of scans was between 1536, with a sweep width of 16 ppm. Spectra were multiplied by a 1 Hz exponential line-broadening function prior to Fourier transform. Compounds 1 (85 uM) and 20 (85 uM) and HSP90 protein (0.85 uM) in 20 mM sodium phosphate buffer (pH 6.7) was used. A) STD 1H NMR spectrum, B) preset reference, and C) STD reference-no saturation/difference.
as §2, with “STD” for “FIG. 9 is a STD 1H NMR Spectrum of Compound 1 and 20 with HSP90 protein. STD”, “employed (Mayer and Meyer, JACS, 2001, 123, 6108-6117).” for “employed.”, “delay (Liu et. al, J. Magn. Res., 1998, 132, 125).” for “delay.”, “1536-2048,” for “1536,”, “transform.” for “transform. Compounds 1 (85 uM) and 20 (85 uM) and HSP90 protein (0.85 uM) in 20 mM sodium phosphate buffer (pH 6.7) was used. A) STD 1H NMR spectrum, B) preset reference, and C) STD reference-no saturation/difference.”
The compound to protein ratio was fixed at approximately 100:1 in 20 mM sodium phosphate buffer (pH 6.7). Compound 20 was used as a reference compound to compare binding affinities of various compounds to HSP90 by comparing the relative intensity of NOE effects in the spectra of compounds 1 and 20 (see FIG. 9), compounds 2 and 20, compounds 5 and 20, compounds 13 and 20, and compounds 15 and 20 (near equamolar quantities of each) in the presence of HSP90 protein. Using the NOE signals for the imidazole proton, and comparing peak heights, the relative kd of the compound pairs were compared (see Meyer and Peters, T. Angew. Chem. Int. Ed. 2003, 42, 864). The kds of the compound pairs ranged from 1:1 to 8:1. These differences in binding affinities correlated to the potency of each respective compound's ability to rescue SCG neurons from NGF withdrawal as previously reported.

HSP90 [2] = experiment: Photoaffinity-biotin labelling of PC12 protein extracts; format: binding; settings: 2 uM, 3 hours, UV 30 minutes, approximately 90 kDal band
Protocol: HSP90 was also identified using the photoaffinity-biotinylated probe, compound 7. PC12 protein extracts were separated by SDS page. SDS was removed by incubation in 20% isopropanol and proteins were renatured by incubation in DTT and guanidine HCl. The gel was then incubated for 3 hours with 2 uM compound 7 and then photoactivated for 30 minutes using a UV crosslinker. Proteins were then transferred to nitrocellulose and biotin was detected with HRP-conjugated strepavidin.

[3] = full body radiography
Protocol: The induction of HSP70 was investigated in vivo by the treatment of rats with a single dose of Na-19 (SC, 30 mg/kg).

Nc1ncnc2c1ncn2[C@@H]1O[C@H](COP(=O)(O)OP(=O)(O)OP(=O)(O)O)[C@@H](O)[C@H]1O [ATP, reference compound]
binding of HSP90 to gATP-Sepharose (HSP90 [1]): strongly inhibited

NS(=O)(=O)c1nn2cc(-c3ccc(OCC(=O)O)cc3)nc2s1 [Compound 3]
protection from Adp75- or AdNRG-induced cell death (PC12^rtTA cells): do not protect | protection from NGF-withdrawal induced cell death (SCG neurons): do not protect | HSP70 production (HSP70): failed to induce HSP70

NS(=O)(=O)c1nn2cc(-c3ccc(NC(=O)c4ccccc4)cc3)nc2s1 [Compound 4]
protection from Adp75- or AdNRG-induced cell death (PC12^rtTA cells): do not protect | protection from NGF-withdrawal induced cell death (SCG neurons): do not protect | HSP70 production (HSP70): failed to induce HSP70

NS(=O)(=O)c1nn2cc(-c3ccc(O)cc3)nc2s1 [Compound 5]
binding to HSP90 protein by STD 1H NMR (HSP90 protein): directly bind

[N-]=[N+]=Nc1c(F)c(F)c(-c2cn3nc(S(=O)(=O)CCNC(=O)CCCCC4SC[C@H]5NC(=O)N[C@@H]45)sc3n2)c(F)c1F (some centres unmarked) [Compound 7]
photoaffinity labelled band (HSP90 [2]): consistent with binding to HSP90

NS(=O)(=O)c1nn2cc(-c3ccc4c(c3)OCCCO4)nc2s1 [Compound 12]
binding to HSP90 protein by STD 1H NMR (HSP90 protein): directly bind

COCCOCCOc1ccc(-c2cn3nc(S(N)(=O)=O)sc3n2)cc1 [Compound 13]
binding to HSP90 protein by STD 1H NMR (HSP90 protein): directly bind

CC(C)(C)c1ccc(-c2cn3nc(S(N)(=O)=O)sc3n2)cc1 [Compound 15]
binding to HSP90 protein by STD 1H NMR (HSP90 protein): directly bind

CC(=O)N1CCN(CC[S+]([O-])c2nn3cc(-c4ccccc4)nc3s2)CC1 (centres unmarked) [Compound 20]
binding to HSP90 protein by STD 1H NMR (HSP90 protein): Positive; also recorded: directly bind

[NH-]S(=O)(=O)c1nn2[14cH]c(-c3ccc(-c4cccc(C(F)(F)F)c4)cc3)nc2s1.[Na+] [[^14C]—Na-19, [5-^14C]-6-(3′-(trifluoromethyl)biphenyl-4-yl)imidazo[2,1-b]-1,3,4-thiadiazole-2-sulfonamide Mono Sodium Salt]
radioactivity in sciatic nerve [3]: significant, time dependent, radioactivity in sciatic nerve
